Measured values as given in patent US20250197375A1, “PYRIMIDINES AND METHODS OF THEIR USE” (Kineta, Inc., priority 2021, published 2025).

Columns and labels:
[1] = target: full-length human PIKFYVE (Homo sapiens (Human), UniProt Q9Y2I7, L932S/Q1183K/Q995L/S1033A/S696N/T998S); assay: PIKfyve Biochemical Assay (ADP-Glo Kinase assay, GST-PIKFYVE); settings: ADP-Glo, 1 hour at room temperature, 10 μM to 3 nM in duplicate; read-out: PIKfyve Biochemistry IC50 (μM)*
Experimental: PIKfyve Biochemical Assay. The biochemical PIKFyve inhibition assays were run by Cama Biosciences according to proprietary methodology based on the Promega ADP-Glo™ Kinase assay. […] GST-PIKFYVE was purified by using glutathione sepharose chromatography and used in an ADP-Glo™ Kinase assay (Promega). Reactions were set up by adding the test compound solution, substrate solution, ATP solution and kinase solution, each at 4× final concentrations. Reactions were prepared with assay buffer (50 mM MOPS, 1 mM DTT, pH7.2), mixed, and incubated in black 384 well polystyrene plates for 1 hour at room temperature. ADP-Glo™ reagent was then added for 40 minutes, followed by kinase detection reagent for an additional 40 minutes. The kinase activity was evaluated by detecting relative light units on a luminescence plate reader. Samples were run in duplicate from 10 μM to 3 nM. […] IC50 values were calculated from concentration versus percent inhibition curves by fitting to a four-parameter logistic curve.
The biochemical PIKFyve inhibition assays were run by Cama Biosciences according to proprietary methodology based on the Promega ADP-Glo™ Kinase assay. […] GST-PIKFYVE was purified by using glutathione sepharose chromatography and used in an ADP-Glo™ Kinase assay (Promega).
Reactions were set up by adding the test compound solution, substrate solution, ATP solution and kinase solution, each at 4× final concentrations. Reactions were prepared with assay buffer (50 mM MOPS, 1 mM DTT, pH7.2), mixed, and incubated in black 384 well polystyrene plates for 1 hour at room temperature. ADP-Glo™ reagent was then added for 40 minutes, followed by kinase detection reagent for an additional 40 minutes. The kinase activity was evaluated by detecting relative light units on a luminescence plate reader. Samples were run in duplicate from 10 uM to 3 nM. […] IC50 values were calculated from concentration vs % inhibition curves by fitting to a four-parameter logistic curve.

PIKfyve = PIKfyve (Homo sapiens (Human), UniProt Q9Y2I7); assay: PIKfyve EEA1 Assay (endosomal vesicle enlargement, high content imaging in U2OS cells); format: cell-based; settings: 3 hours of treatment, activity relative to maximal APY0201 activity
Experimental: PIKfyve EEA1 Assay. Genetic or pharmacological disruption of PIKfyve activity results in enlargement of endosomal vesicles. This enlargement was utilized as a surrogate readout of PIKFyve inhibition for routine triage of PIKfyve inhibitors. U2OS cells grown in 96-well assay plates were treated with compound diluted in DMEM media containing 10% fetal bovine serum. After 3 hours of treatment, cells were fixed with paraformaldehyde, permeabilized with 0.2% Triton-X in phosphate buffered saline and stained against EEA1. During the secondary antibody staining, cells were also stained with CellMask™ Deep Red and Hoechst to detect cytoplasms and nuclei respectively. Endosomal structures were visualized using a high content imager at 40× magnification. Images were analyzed using a linear classifier algorithm integrating EEA1 spot size, intensity and texture trained on images of cells treated with the potent reference compound APY0201. Compound activity was calculated by subtracting the DMSO signal and calculating percentage activity relative to maximal APY0201 activity. IC50 values were then calculated from concentration versus percent inhibition data by logistic regression.

Chain of full-length human PIKFYVE (Q9Y2I7 whole entry S696N/L932S/Q995L/T998S/S1033A/Q1183K): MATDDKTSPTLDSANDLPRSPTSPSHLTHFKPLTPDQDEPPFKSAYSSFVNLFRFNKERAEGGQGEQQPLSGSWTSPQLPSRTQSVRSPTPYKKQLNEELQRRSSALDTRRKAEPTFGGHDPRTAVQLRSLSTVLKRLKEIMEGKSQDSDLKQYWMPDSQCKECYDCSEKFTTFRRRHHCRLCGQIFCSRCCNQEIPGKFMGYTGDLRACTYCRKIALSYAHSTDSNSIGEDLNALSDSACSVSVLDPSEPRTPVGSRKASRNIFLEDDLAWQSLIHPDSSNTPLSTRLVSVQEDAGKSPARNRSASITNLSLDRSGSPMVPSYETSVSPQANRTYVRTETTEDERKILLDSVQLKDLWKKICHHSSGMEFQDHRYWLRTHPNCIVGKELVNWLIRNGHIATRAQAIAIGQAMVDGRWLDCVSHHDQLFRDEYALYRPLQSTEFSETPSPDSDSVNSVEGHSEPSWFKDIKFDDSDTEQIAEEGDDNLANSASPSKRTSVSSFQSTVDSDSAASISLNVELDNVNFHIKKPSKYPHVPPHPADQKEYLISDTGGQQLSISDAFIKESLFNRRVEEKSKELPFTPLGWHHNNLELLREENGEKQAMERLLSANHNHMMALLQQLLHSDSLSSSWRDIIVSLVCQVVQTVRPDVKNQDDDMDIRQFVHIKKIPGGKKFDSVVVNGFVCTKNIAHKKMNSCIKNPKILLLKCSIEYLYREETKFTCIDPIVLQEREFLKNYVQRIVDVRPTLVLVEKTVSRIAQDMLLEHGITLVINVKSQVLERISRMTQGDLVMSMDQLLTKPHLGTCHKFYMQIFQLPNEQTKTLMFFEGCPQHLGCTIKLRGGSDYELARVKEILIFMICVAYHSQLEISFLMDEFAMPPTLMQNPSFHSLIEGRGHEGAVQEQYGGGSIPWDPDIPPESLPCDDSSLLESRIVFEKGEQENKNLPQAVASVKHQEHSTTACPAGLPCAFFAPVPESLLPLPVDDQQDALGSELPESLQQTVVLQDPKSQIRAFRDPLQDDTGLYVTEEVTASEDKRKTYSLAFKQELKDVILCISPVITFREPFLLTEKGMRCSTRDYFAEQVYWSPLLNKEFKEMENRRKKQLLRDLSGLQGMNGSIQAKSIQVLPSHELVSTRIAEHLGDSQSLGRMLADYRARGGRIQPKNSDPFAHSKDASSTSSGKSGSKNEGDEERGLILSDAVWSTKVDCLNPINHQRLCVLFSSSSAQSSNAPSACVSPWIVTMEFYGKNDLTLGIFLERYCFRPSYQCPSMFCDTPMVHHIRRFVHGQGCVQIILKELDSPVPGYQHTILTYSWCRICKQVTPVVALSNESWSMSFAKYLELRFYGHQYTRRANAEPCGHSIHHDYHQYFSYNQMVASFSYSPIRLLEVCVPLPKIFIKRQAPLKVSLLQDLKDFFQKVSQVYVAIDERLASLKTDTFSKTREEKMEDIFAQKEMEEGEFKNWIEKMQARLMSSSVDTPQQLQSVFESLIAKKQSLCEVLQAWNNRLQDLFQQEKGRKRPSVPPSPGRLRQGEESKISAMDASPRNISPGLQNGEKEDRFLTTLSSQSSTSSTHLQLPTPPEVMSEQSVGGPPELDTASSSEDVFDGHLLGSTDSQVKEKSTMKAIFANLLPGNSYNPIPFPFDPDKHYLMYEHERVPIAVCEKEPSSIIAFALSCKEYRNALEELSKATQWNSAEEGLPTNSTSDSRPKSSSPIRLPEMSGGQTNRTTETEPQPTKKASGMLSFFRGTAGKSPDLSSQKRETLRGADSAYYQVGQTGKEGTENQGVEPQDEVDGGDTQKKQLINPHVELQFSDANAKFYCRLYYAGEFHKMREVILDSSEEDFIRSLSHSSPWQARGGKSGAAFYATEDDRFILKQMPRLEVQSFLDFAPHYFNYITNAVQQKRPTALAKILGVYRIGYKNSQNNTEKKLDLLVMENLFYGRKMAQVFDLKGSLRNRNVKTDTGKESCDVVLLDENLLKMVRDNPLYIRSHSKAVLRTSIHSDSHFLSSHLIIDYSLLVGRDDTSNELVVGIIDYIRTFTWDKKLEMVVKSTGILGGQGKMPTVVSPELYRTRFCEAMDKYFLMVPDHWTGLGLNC
Chain of PIKfyve (Q9Y2I7 whole entry): as the sequence (Q9Y2I7 whole entry S696N/L932S/Q995L/T998S/S1033A/Q1183K) above, with N696S, S932L, L995Q, S998T, A1033S, K1183Q counted along it

SMILES | IC50 [1] [µM] | IC50 (PIKfyve) [µM]
COc1c(C(=O)Nc2ccccc2)nc(N2CCOCC2)nc1-c1ccn(-c2ccccc2)n1 [Compound 1, 5-methoxy-2-morpholino-N-phenyl-6-(1-phenyl-1H-pyrazol-3-yl)pyrimidine-4-carboxamide] | 0.01 to 0.1 | 1 to 10
COc1c(Oc2cccnc2)nc(N2CCOCC2)nc1-n1cc(-c2ccccc2)cn1 [Compound 2, 4-(5-methoxy-4-(4-phenyl-1H-pyrazol-1-yl)-6-(pyridin-3-yloxy)pyrimidin-2-yl) morpholine] | 0.01 to 0.1 | 1 to 10
COc1c(C(=O)NC2CC2)nc(N2CCOCC2)nc1-c1cccc(-c2ccn(C)n2)c1 [Compound 6, N-cyclopropyl-4-methoxy-6-(3-(1-methyl-H-pyrazol-3-yl)phenyl)-2-morpholino pyrimidine-4-carboxamide] | 0.01 to 0.1 | 1 to 10
COc1c(Nc2ccncc2)nc(N2CCOCC2)nc1-c1cncc(-c2ccn(C)n2)c1 [Compound 7, 5-methoxy-6-(5-(1-methyl-1H-pyrazol-3-yl)pyridin-3-yl)-2-morpholino-N-(pyridin-4-yl)pyrimidin-4-amine] | < 0.01 | 0.01 to 0.1
COc1c(Nc2ccncc2)nc(N2CCOCC2)nc1-c1cccc(-n2cccn2)c1 [Compound 8, 6-(3-(1H-pyrazol-1-yl)phenyl)-5-methoxy-2-morpholino-N-(pyridin-4-yl)pyrimidin-4-amine] | < 0.01 | 0.1 to 1
COc1c(Nc2ccncc2)nc(N2CCOCC2)nc1-c1cccc(-c2cccnn2)c1 [Compound 10, 5-methoxy-2-morpholino-6-(3-(pyridazin-3-yl)phenyl)-N-(pyridin-4-yl)pyrimidin-4-amine] | 0.01 to 0.1 | 0.1 to 1
COc1c(Nc2ccncc2)nc(N2CCOCC2)nc1-c1cccc(C(=O)N(C)C)c1 [Compound 11, 3-(5-methoxy-2-morpholino-6-(pyridin-4-ylamino)pyrimidin-4-yl)-N,N-dimethylbenzamide] | 0.01 to 0.1 | 1 to 10
COc1cc(-c2nc(N3CCOCC3)nc(Nc3ccncc3)c2OC)cnc1OC [Compound 12, 6-(5,6-dimethoxypyridin-3-yl)-5-methoxy-2-morpholino-N-(pyridin-4-yl)pyrimidin-4-amine] | < 0.01 | 0.1 to 1
COc1ccc(-c2nc(N3CCOCC3)nc(Nc3ccncc3)c2OC)cc1OC [Compound 13, 6-(3,4-dimethoxyphenyl)-5-methoxy-2-morpholino-N-(pyridin-4-yl)pyrimidin-4-amine] | < 0.01 | 0.1 to 1
COc1c(Nc2ccncc2)nc(N2CCOCC2)nc1-c1ccnc(-c2ccn(C)n2)c1 [Compound 14, 5-methoxy-6-(2-(1-methyl-H-pyrazol-3-yl)pyridin-4-yl)-2-morpholino-N-(pyridin-4-yl)pyrimidin-4-amine] | < 0.01 | 0.01 to 0.1
COc1c(Nc2ccncc2)nc(N2CCOCC2)nc1-c1cccc(N2CCN(C)C(=O)C2)c1 [Compound 15, 4-(3-(5-methoxy-2-morpholino-6-(pyridin-4-ylamino)pyrimidin-4-yl)phenyl)-1-methylpiperazin-2-one] | 0.01 to 0.1 | 0.1 to 1
COc1c(Nc2ccncc2)nc(N2CCOCC2)nc1-c1cccc(-c2ncccn2)c1 [Compound 16, 5-methoxy-2-morpholino-N-(pyridin-4-yl)-6-(3-(pyrimidin-2-yl)phenyl)pyrimidin-4-amine] | < 0.01 | 0.01 to 0.1
COc1c(Nc2ccc(C)cc2)nc(N2CCOCC2)nc1-c1cc(-c2ccn(C)n2)cnn1 [Compound 17, 5-methoxy-6-(5-(1-methyl-1H-pyrazol-3-yl)pyridazin-3-yl)-2-morpholino-N-(p-tolyl)pyrimidin-4-amine] | < 0.01 | 0.01 to 0.1
COc1c(Nc2cccnc2)nc(N2CCOCC2)nc1-c1cncc(-c2ccn(C)n2)c1 [Compound 19, 5-methoxy-6-(5-(1-methyl-1H-pyrazol-3-yl)pyridin-3-yl)-2-morpholino-N-(pyridin-3-yl)pyrimidin-4-amine] | 0.01 to 0.1 | 0.1 to 1
COc1c(-c2ccncc2)nc(N2CCOCC2)nc1-c1cccc(-c2ccn(C)n2)c1 [Compound 30, 4-(5-methoxy-4-(3-(1-methyl-1H-pyrazol-3-yl)phenyl)-6-(pyridin-4-yl)pyrimidin-2-yl)morpholine] | 0.01 to 0.1 | 1 to 10
COc1c(-c2cccc(-c3ccn(C)n3)c2)nc(N2CCOCC2)nc1C(O)c1ccncc1 (stereo not drawn) [Compound 32] | 0.1 to 1 | 1 to 10
CN(C)C(=O)c1c(Nc2ccncc2)nc(N2CCOCC2)nc1-c1cccc(-n2cccn2)c1 [Compound 33] | 0.01 to 0.1 | 0.1 to 1
Cn1ccc(-c2cc3c(cn2)COc2c(Nc4ccncc4)nc(N4CCOCC4)nc2-3)n1 [Compound 38, 9-(1-methyl-1H-pyrazol-3-yl)-2-morpholino-N-(pyridin-4-yl)-6H-pyrido[4′,3′:4,5]pyrano[3,2-d]pyrimidin-4-amine] | 0.01 to 0.1 | 0.1 to 1
COc1c(Nc2ccncc2)nc(-c2ccncc2)nc1-c1ccnc(-c2ccn(C)n2)c1 [Compound 39, 5-methoxy-6-(2-(1-methyl-1H-pyrazol-3-yl)pyridin-4-yl)-N, 2-di(pyridin-4-yl)pyrimidin-4-amine] | < 0.01 | 0.01 to 0.1
Cn1ccc(-c2cnc3c(c2)-c2nc(N4CCOCC4)nc(Nc4ccncc4)c2OC3)n1 [Compound 40, 9-(1-methyl-1H-pyrazol-3-yl)-2-morpholino-N-(pyridin-4-yl)-6H-pyrido[3′,2′:4,5] pyrano[3,2-d]pyrimidin-4-amine] | 0.01 to 0.1 | 0.01 to 0.1
COc1c(Nc2ccncc2)nc(N2CCOCC2)nc1-c1cccc(-c2nn(C)cc2C)c1 [Compound 41] | 0.01 to 0.1 | 0.1 to 1
COc1c(Nc2ccncc2)nc(N2CCCC2=O)nc1-c1cccc(-c2ccn(C)n2)c1 [Compound 44, 1-(5-methoxy-4-(3-(1-methyl-1H-pyrazol-3-yl)phenyl)-6-(pyridin-4-ylamino)pyrimidin-2-yl)pyrrolidin-2-one] | 1 to 10 | > 10
COc1c(Nc2ccncc2)nc(N2CCC(O)CC2)nc1-c1cccc(-c2ccn(C)n2)c1 [Compound 46, 1-(5-methoxy-4-(3-(1-methyl-1H-pyrazol-3-yl)phenyl)-6-(pyridin-4-ylamino)pyrimidin-2-yl)piperidin-4-ol] | 0.1 to 1 | > 10
COc1cn(C)nc1-c1cccc(-c2nc(N3CCOCC3)nc(Nc3ccncc3)c2OC)c1 [Compound 47, 5-methoxy-6-(3-(4-methoxy-1-methyl-1H-pyrazol-3-yl)phenyl)-2-morpholino-N-(pyridin-4-yl)pyrimidin-4-amine] | 0.01 to 0.1 | 0.1 to 1
Cn1ccc(-c2ccc3c(c2)-c2nc(N4CCOCC4)nc(Nc4ccncc4)c2OC3)n1 [Compound 49, 9-(1-methyl-1H-pyrazol-3-yl)-2-morpholino-N-(pyridin-4-yl)-6H-isochromeno[4,3-d]pyrimidin-4-amine] | 0.01 to 0.1 | 0.1 to 1
COc1c(Nc2ccncc2)nc(N2CCOCC2)nc1-c1cncc(-c2cccnn2)c1 [Compound 57] | < 0.01 | 0.1 to 1
COc1c(NCc2cccnc2)nc(-c2ccncc2)nc1-c1cccc(-c2ccn(C)n2)c1 [Compound 62, 5-methoxy-6-(3-(1-methyl-1H-pyrazol-3-yl)phenyl)-N-(pyridin-3-ylmethyl)-2-(pyridin-4-yl)pyrimidin-4-amine] | < 0.01 | 0.1 to 1
Cn1ccc(-c2ccc3c(c2)c2nc(N4CCOCC4)nc(Nc4ccncc4)c2c(=O)n3C)n1 [Compound 71, 6-methyl-9-(1-methylpyrazol-3-yl)-2-morpholino-4-(4-pyridylamino)pyrimido[5,4-c]quinolin-one] | – | 0.1 to 1
Cn1ccc(-c2ccc3[nH]c(=O)c4c(Nc5ccncc5)nc(N5CCOCC5)nc4c3c2)n1 [Compound 72, 9-(1-methylpyrazol-3-yl)-2-morpholino-4-(4-pyridylamino)-6H-pyrimido[5,4-c]quinolin-one] | – | 0.01 to 0.1
Cn1ccc(-c2cccc(-c3nc(N4CCOCC4)nc(Nc4cc[n+](C)cc4)c3-c3ncco3)c2)n1 [Compound 73] | – | 1 to 10
